Reference: patent publication US20240368150A1 (Hoffmann-La Roche Inc., priority 2021, published 2024)
Where two headings read alike, the source gives them in different places.

Columns and labels:
primary human T-cells [1] = tested on: primary human T-cells
primary human T-cells [2] = assay: Proliferation assay after 5 days (CellTiter-Glo, CD3 stimulation; PBS counter screen); format: cell-based; settings: Homo sapiens, T-cell, 120 h, CD3 stimulation; for Emax: 5 days, normalized to reference compound A1 as stimulator control = 100%, DMSO neutral control, read-out: Emax proliferation (% activation); for EC50: primary human T-cells, CellTiter-Glo after 5 days, EC50 of fitted sigmoidal curve, read-out: Tcell Proliferation CD3 EC50
How it was run: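 Read-out: CellTiter-Glo 2.0 luminescence (ATP ∝ cell number) at day 5 after compound addition. Compounds activating unstimulated cells or reducing viability flagged.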

| Compound | EC50 (primary human T-cells [1]) [nM] | Emax (primary human T-cells [2]) [%] | EC50 (primary human T-cells [2]) [nM] |
| --- | --- | --- | --- |
| N[C@H]1CS(=O)(=O)c2cc(F)c(-c3noc(N4CCOC(C(F)(F)F)C4)n3)cc2N(Cc2ccc(Cl)cc2)C1=O (stereo partly drawn) [Example 193, (3R)-3-amino-5-[(4-chlorophenyl)methyl]-8-fluoro-1,1-dioxo-7-[5-[2-(trifluoromethyl)morpholin-4-yl]-1,2,4-oxadiazol-3-yl]-2,3-dihydro-1λ^6,5-benzothiazepin-4-one] | 38.7 | 108 | 21.3 |
| N[C@H]1CS(=O)(=O)c2cc(F)c(-c3noc(N4CCOC5(CC5)C4)n3)cc2N(Cc2ccc(Cl)cc2)C1=O [Example 194, (3R)-3-amino-5-[(4-chlorophenyl)methyl]-8-fluoro-7-[5-(4-oxa-7-azaspiro[2.5]octan-7-yl)-1,2,4-oxadiazol-3-yl]-1,1-dioxo-2,3-dihydro-1λ^6,5-benzothiazepin-4-one] | 40.7 | 79 | 15.2 |
| N[C@H]1CS(=O)(=O)c2cc(F)c(-c3noc(NC4CCC4)n3)cc2N(Cc2ccc(Cl)cc2)C1=O [Example 195, (3R)-3-amino-5-[(4-chlorophenyl)methyl]-7-[5-(cyclobutylamino)-1,2,4-oxadiazol-3-yl]-8-fluoro-1,1-dioxo-2,3-dihydro-1λ^6,5-benzothiazepin-4-one] | 167 | 108 | 106 |
| N[C@H]1CS(=O)(=O)c2cc(F)c(-c3noc(N4CCOCC4)n3)cc2N(Cc2ccc(Cl)cc2)C1=O [Example 196, (3R)-3-amino-5-[(4-chlorophenyl)methyl]-8-fluoro-7-(5-morpholino-1,2,4-oxadiazol-3-yl)-1,1-dioxo-2,3-dihydro-1λ^6,5-benzothiazepin-4-one] | 36.1 | 81 | 16.6 |
| N[C@H]1CS(=O)(=O)c2cc(F)c(-c3noc(N4CCC(F)(F)CC4)n3)cc2N(Cc2ccc(Cl)cc2)C1=O [Example 197, (3R)-3-amino-5-[(4-chlorophenyl)methyl]-7-[5-(4,4-difluoro-1-piperidyl)-1,2,4-oxadiazol-3-yl]-8-fluoro-1,1-dioxo-2,3-dihydro-1λ^6,5-benzothiazepin-4-one] | 226 | 112 | 118 |
| N[C@H]1CS(=O)(=O)c2cc(F)c(-c3noc(N4CCNC(C(F)(F)F)C4)n3)cc2N(Cc2ccc(Cl)cc2)C1=O (stereo partly drawn) [Example 198, (3R)-3-amino-5-[(4-chlorophenyl)methyl]-8-fluoro-1,1-dioxo-7-[5-[3-(trifluoromethyl)piperazin-1-yl]-1,2,4-oxadiazol-3-yl]-2,3-dihydro-1λ^6,5-benzothiazepin-4-one] | 562 | 112 | 332 |
| CC(C)(C#N)Nc1nc(-c2cc3c(cc2F)S(=O)(=O)C[C@H](N)C(=O)N3Cc2ccc(Cl)cc2)no1 [Example 199, 2-methyl-2-[[3-[(3R)-3-amino-5-[(4-chlorophenyl)methyl]-8-fluoro-1,1,4-trioxo-2,3-dihydro-1λ^6,5-benzothiazepin-7-yl]-1,2,4-oxadiazol-5-yl]amino]propanenitrile] | > 10000 | 71 | 2960 |
| N[C@H]1CS(=O)(=O)c2cc(F)c(-c3noc(N4[C@@H]5CC[C@H]4COC5)n3)cc2N(Cc2ccc(Cl)cc2)C1=O [Example 200, (3R)-3-amino-5-[(4-chlorophenyl)methyl]-8-fluoro-1,1-dioxo-7-[5-[(1R,5S)-3-oxa-8-azabicyclo[3.2.1]octan-8-yl]-1,2,4-oxadiazol-3-yl]-2,3-dihydro-1λ^6,5-benzothiazepin-4-one] | 142 | 88 | 37.9 |
| CC1(Nc2nc(-c3cc4c(cc3F)S(=O)(=O)C[C@H](N)C(=O)N4Cc3ccc(Cl)cc3)no2)CC(F)(F)C1 [Example 201, (3R)-3-amino-5-[(4-chlorophenyl)methyl]-7-[5-[(3,3-difluoro-1-methyl-cyclobutyl)amino]-1,2,4-oxadiazol-3-yl]-8-fluoro-1,1-dioxo-2,3-dihydro-1λ^6,5-benzothiazepin-4-one] | 828 | 156 | 229 |
| NC(CNc1nc(-c2cc3c(cc2F)S(=O)(=O)C[C@H](N)C(=O)N3Cc2ccc(Cl)cc2)no1)C(F)(F)F (stereo partly drawn) [Example 202, (3R)-3-amino-7-[5-[(2-amino-3,3,3-trifluoro-propyl)amino]-1,2,4-oxadiazol-3-yl]-5-[(4-chlorophenyl)methyl]-8-fluoro-1,1-dioxo-2,3-dihydro-1λ^6,5-benzothiazepin-4-one] | 1300 | 57 | 1430 |
| C#CCOCCOCCCC(C)(C)Nc1nc(-c2cc3c(cc2F)S(=O)(=O)C[C@H](N)C(=O)N3Cc2ccc(Cl)cc2)no1 [Example 203, (3R)-3-amino-5-[(4-chlorophenyl)methyl]-7-[5-[[1,1-dimethyl-4-(2-prop-2-ynoxyethoxy)butyl]amino]-1,2,4-oxadiazol-3-yl]-8-fluoro-1,1-dioxo-2,3-dihydro-1λ^6,5-benzothiazepin-4-one] | 1580 | 99 | 233 |
| N[C@H]1CS(=O)(=O)c2cc(F)c(-c3noc(N4CCOC(F)(F)C4)n3)cc2N(Cc2ccc(Cl)cc2)C1=O [Example 204, (3R)-3-amino-5-[(4-chlorophenyl)methyl]-7-[5-(2,2-difluoromorpholin-4-yl)-1,2,4-oxadiazol-3-yl]-8-fluoro-1,1-dioxo-2,3-dihydro-1λ^6,5-benzothiazepin-4-one] | 78.5 | 154 | 34.8 |
| N[C@H]1CS(=O)(=O)c2cc(F)c(-c3noc(NC4CC(F)(F)C4)n3)cc2N(Cc2ccc(Cl)cc2)C1=O [Example 206] | 542 | 168 | 157 |
| CCc1coc(-c2cc3c(cc2F)S(=O)(=O)C[C@H](N)C(=O)N3Cc2ccc(Cl)cc2)n1 [Example 216, (3R)-3-amino-5-[(4-chlorophenyl)methyl]-7-(4-ethyloxazol-2-yl)-8-fluoro-1,1-dioxo-2,3-dihydro-1λ^6,5-benzothiazepin-4-one] | 16400 | 41 | > 20000 |
| N[C@H]1CS(=O)(=O)c2ccc(-c3nnc(CC(F)(F)F)o3)c(F)c2N(Cc2ccc(Cl)cc2)C1=O [Example 217, (3R)-3-amino-5-[(4-chlorophenyl)methyl]-6-fluoro-1,1-dioxo-7-[5-(2,2,2-trifluoroethyl)-1,3,4-oxadiazol-2-yl]-2,3-dihydro-1λ^6,5-benzothiazepin-4-one] | 780 | 221 | 2110 |
| Cc1c(F)c(-c2nnc(C(C)(C)C)o2)cc2c1S(=O)(=O)C[C@H](N)C(=O)N2Cc1ccc(Cl)cc1 [Example 218, (3R)-3-amino-7-(5-tert-butyl-1,3,4-oxadiazol-2-yl)-5-[(4-chlorophenyl)methyl]-8-fluoro-9-methyl-1,1-dioxo-2,3-dihydro-1λ^6,5-benzothiazepin-4-one] | 7860 | 80 | 3890 |
| CC(C)(C)c1nnc(-c2cc3c(cc2F)S(=O)(=O)C[C@H](N)C(=O)N3Cc2cccc(Cl)c2)o1 [Example 219, (3R)-3-amino-7-(5-tert-butyl-1,3,4-oxadiazol-2-yl)-5-[(3-chlorophenyl)methyl]-8-fluoro-1,1-dioxo-2,3-dihydro-1λ^6,5-benzothiazepin-4-one] | 3210 | 105 | 2740 |
| CC(C)(C)c1nnc(-c2cc3c(cc2F)S(=O)(=O)C[C@H](N)C(=O)N3Cc2ccc(OC3CCOC3)cc2)o1 (stereo partly drawn) [Example 221, (3R)-3-amino-7-(5-tert-butyl-1,3,4-oxadiazol-2-yl)-8-fluoro-1,1-dioxo-5-[(4-tetrahydrofuran-3-yloxyphenyl)methyl]-2,3-dihydro-1λ^6,5-benzothiazepin-4-one] | 382 | 107 | 255 |
| CC(C)(C)c1nnc(-c2cc3c(cc2F)S(=O)(=O)C[C@H](N)C(=O)N3Cc2ccc(OCC(F)F)cc2)o1 [Example 222, (3R)-3-amino-7-(5-tert-butyl-1,3,4-oxadiazol-2-yl)-5-[[4-(2,2-difluoroethoxy)phenyl]methyl]-8-fluoro-1,1-dioxo-2,3-dihydro-1λ^6,5-benzothiazepin-4-one] | 535 | 119 | 235 |
| CC(C)(C)c1nnc(-c2cc3c(cc2F)S(=O)(=O)C[C@H](N)C(=O)N3Cc2ccc(OC(F)F)cc2)o1 [Example 223, (3R)-3-amino-7-(5-tert-butyl-1,3,4-oxadiazol-2-yl)-5-[[4-(difluoromethoxy)phenyl]methyl]-8-fluoro-1,1-dioxo-2,3-dihydro-1λ^6,5-benzothiazepin-4-one] | > 20000 | 128 | < 162 |
| CC(C)(C)c1nnc(-c2cc3c(cc2F)S(=O)(=O)C[C@H](N)C(=O)N3Cc2ccccn2)o1 [Example 224, (3R)-3-amino-7-(5-tert-butyl-1,3,4-oxadiazol-2-yl)-8-fluoro-1,1-dioxo-5-(2-pyridylmethyl)-2,3-dihydro-1λ^6,5-benzothiazepin-4-one] | > 20000 | 31 | > 20000 |
| COc1ccc(CN2C(=O)[C@@H](N)CS(=O)(=O)c3cc(F)c(-c4nnc(C(C)(C)C)o4)cc32)cn1 [Example 225, (3R)-3-amino-7-(5-tert-butyl-1,3,4-oxadiazol-2-yl)-8-fluoro-5-[(6-methoxy-3-pyridyl)methyl]-1,1-dioxo-2,3-dihydro-1λ^6,5-benzothiazepin-4-one] | 4370 | 109 | 1890 |
| CC(C)(C)c1nnc(-c2cc3c(cc2F)S(=O)(=O)C[C@H](N)C(=O)N3Cc2ccc(CN)cc2)o1 [Example 226, (3R)-3-amino-5-[[4-(aminomethyl)phenyl]methyl]-7-(5-tert-butyl-1,3,4-oxadiazol-2-yl)-8-fluoro-1,1-dioxo-2,3-dihydro-1λ^6,5-benzothiazepin-4-one] | > 20000 | 25 | > 20000 |
